The experiment deals with T1, histamine-3 receptor (Rattus norvegicus, UniProt Q9QYN8).
T1 construct: from tissue; host or cells: male Sprague-Dawley rat brain cortex membranes
Description: Histamine-3 receptor binding: displacement of (3H)-N-α-methylhistamine from rat cortical membranes. Also noted: species or system male Sprague-Dawley rat. The conditions noted are these: (3H)-N-α-methylhistamine (~0.6 nM), 30 minutes at 25 °C, pH 7.7, Cheng-Prusoff equation. As for the experimental part: Briefly, male Sprague-Dawley rat brain cortices were homogenized (1 g tissue/10 mL buffer) in 50 mM Tris-HCl/5 mM EDTA containing protease inhibitor cocktail (Calbiochem) using a polytron set at 20,500 rpm. Homogenates were centrifuged for 20 minutes at 40,000xg. The supernatant was decanted, and pellets were weighed. The pellet was resuspended by polytron homogenization in 40 mL 50 mM Tris-HCI/5 mM EDTA with protease inhibitors and centrifuged for 20 minutes at 40,000xg. […] Test compounds were dissolved in DMSO to provide a 20 mM solution, serially diluted and then added to the incubation mixtures prior to initiating the incubation assay by addition of the membranes. Thioperamide (3 µM) was used to determine nonspecific binding. Binding incubations were conducted for 30 minutes at 25 °C and terminated by addition of 2 mL of ice cold 50 mM Tris-HCl (pH 7.7) and filtration through 0.3% polyethylenimine-soaked Unifilter plates (Packard). These filters were washed 4 additional times with 2 mL of ice-cold 50 mM Tris-HCl and dried for 1 hour. Radioactivity was determined using liquid scintillation counting techniques. Results were analyzed by Hill transformation and Ki values were determined using the Cheng-Prusoff equation.

T1 sequence (Q9QYN8 whole entry): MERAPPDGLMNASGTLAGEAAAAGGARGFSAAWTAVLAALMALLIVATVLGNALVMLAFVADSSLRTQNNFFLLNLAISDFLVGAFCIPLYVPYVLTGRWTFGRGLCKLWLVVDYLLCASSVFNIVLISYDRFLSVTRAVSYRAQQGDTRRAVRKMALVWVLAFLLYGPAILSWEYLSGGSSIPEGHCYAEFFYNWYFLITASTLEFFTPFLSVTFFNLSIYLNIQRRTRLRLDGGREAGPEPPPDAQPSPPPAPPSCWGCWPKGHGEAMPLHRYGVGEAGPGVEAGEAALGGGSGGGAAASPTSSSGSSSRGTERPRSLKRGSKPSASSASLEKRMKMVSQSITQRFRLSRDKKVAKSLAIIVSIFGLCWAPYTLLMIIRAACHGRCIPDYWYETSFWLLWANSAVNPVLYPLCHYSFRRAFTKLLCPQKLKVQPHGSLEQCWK

For `CC(C)(C)OC(=O)NC1CCN(CCCOc2ccc(-c3ccc(C#N)cc3)cc2)C1` (centres unmarked) [Example 98, tert-butyl 1-{3-[(4'-cyano[1,1'-biphenyl]-4-yl)oxy]propyl}-3-pyrrolidinylcarbamate], the Ki (in general, a dissociation constant, usually derived from enzyme kinetics or from competition with a known ligand) stood at 90 nM.

In the case of `N#Cc1ccc(-c2ccc(OCCCN3CC[C@@H](O)C3)cc2)cc1` [Example 153, 4'-{3-[(3R)-3-hydroxypyrrolidinyl]propoxy}[1,1'-biphenyl]-4-carbonitrile], the Ki was 42 nM.

Molecule `N#Cc1ccc(-c2ccc(OCCCN3CC[C@H](O)C3)cc2)cc1` [Example 155, 4'-{3-[(3S)-3-hydroxypyrrolidinyl]propoxy}[1,1'-biphenyl]-4-carbonitrile] had a Ki of 105 nM.

On to `CC1(O)CCN(CCCOc2ccc(-c3ccc(C#N)cc3)cc2)C1` (centres unmarked) [Example 156, 4'-[3-(3-hydroxy-3-methyl-1-pyrrolidinyl)propoxy][1,1'-biphenyl]-4-carbonitrile], for which affinity was put at a Ki of 45 nM.

For “N-((3R)-1-{3-[4-(cyclopropylcarbonyl)phenoxy]propyl}pyrrolidinyl)-4-isopropylbenzenesulfonamide [Example 67]”, the affinity, expressed as Ki, was 2.9 nM.

As for `C[C@@]1(O)CCN(CCCOc2ccc(-c3ccc(C#N)cc3)cc2)C1` [Example 158, 4'-{3-[(3R)-3-hydroxy-3-methylpyrrolidinyl]propoxy}[1,1'-biphenyl]-4-carbonitrile], the affinity corresponds to a Ki of 15 nM.

In turn, `CC(C)C1(O)CCN(CCCOc2ccc(-c3ccc(C#N)cc3)cc2)C1` (centres unmarked) [Example 157] displayed a Ki of 593 nM.

Molecule `N#Cc1ccc(-c2ccc(OCCCN3CCC(=O)C3)cc2)cc1` [Example 154, 4'-[3-(3-oxo-1-pyrrolidinyl)propoxy][1,1'-biphenyl]-4-carbonitrile] returned a Ki of 63 nM.

In the case of `O=C(c1ccc(OCCCN2CCC(O)C2)cc1)C1CC1` (centres unmarked) [Example 151, cyclopropyl{4-[3-(3-hydroxy-1-pyrrolidinyl)propoxy]phenyl}methanone], the Ki came out at 22 nM.

`O=C(c1ccc(OCCCN2CC[C@@H](O)C2)cc1)C1CC1` [Example 152, cyclopropyl(4-{3-[(3R)-3-hydroxypyrrolidinyl]propoxy}phenyl)methanone] gave a Ki of 8.7 nM.

In turn, `CC(=O)c1ccc(OCCCN2CCC(N3C(=O)NC(C(C)C)C3=O)C2)cc1` [Example 10, (5R)-3-{(3R)-1-[3-(4-acetylphenoxy)propyl]pyrrolidinyl}-5-isopropyl-2,4-imidazolidinedione] registered a Ki of 626 nM.

“1-(4-{3-[(3R)-3-aminopyrrolidinyl]propoxy}phenyl)-1-propanone [Example 7]” registered a Ki of 31 nM.

On to “N-{(3R)-1-[3-(4-acetylphenoxy)propyl]pyrrolidinyl}-4-(trifluoromethoxy)benzenesulfonamide [Example 73]”, for which the Ki worked out at 6.4 nM.

`CN(C)[C@@H]1CCN(CCCOc2ccc(-c3ccc(C#N)cc3)cc2)C1` [Example 108, 4'-{3-[(3R)-3-(dimethylamino)pyrrolidinyl]propoxy}[1,1'-biphenyl]-4-carbonitrile] returned a Ki of 12 nM.

The values above are taken from patent EP1301480B1, “1,3-DISUBSTITUTED AND 1,3,3-TRISUBSTITUTED PYRROLIDINES AS HISTAMINE-3 RECEPTOR LIGANDS AND THEIR THERAPEUTIC APPLICATIONS” (ABBOTT LABORATORIES, priority 2000, dated 2002).
